The results in this text go back to PubChem BioAssay AID2384 (Southern Research Specialized Biocontainment Screening …, 2010).

As usually defined, the IC50 is the concentration that gives 50% inhibition.

In the assay the test system is S. typhi GFP reporter counter-screen, fluorescence, 4 h. The experiment in a line: inhibitors in S. typhi counter-screen strain, dose response, counter-screen for PhoP regulon inhibitor project, fluorescence, 4 h (AID 2384). (Counterscreens check selectivity or assay interference.)
Take `COc1ccc(-c2cnc(NCc3cc4c(cc3[N+](=O)[O-])OCO4)n2C)cc1`: the IC50 is 145 µM.

Consider `Cc1ccc(OCC(O)Cn2c(=N)n(CCN3CCCCC3)c3ccccc32)cc1` (stereo not drawn), for which the half-maximal inhibitory concentration (IC50) was 13.4 µM.

Turning to `O=C(C[n+]1ccc(-c2ccccc2)cc1)Nc1ccc([N+](=O)[O-])cc1`, the 50% inhibitory concentration (IC50) was 26.3 µM.

In the case of `Cc1nn(-c2cc(N3CCNCC3)ccc2[N+](=O)[O-])c(=O)c2ccccc12`, the half-maximal inhibitory concentration (IC50) is 141 µM.

Turning to `Cc1cc(OCCCCCN2CCCC2)ccc1Cl`, the IC50 is 51 µM.

Take `CNC[C@@H](CC1CCCCC1)NC[C@H](CC(C)C)NCCc1cccc(C(F)(F)F)c1`: the IC50 was 18.8 µM.

As to `Fc1ccc(Nc2nc(NCc3ccco3)c3ccccc3n2)cc1`, the concentration for half-maximal inhibition (IC50) was 20.7 µM.

As for `Cc1ccccc1C(=O)N/N=C/c1ccc([N+](=O)[O-])s1`, the IC50 was 75.3 µM.

For the molecule `O=C1c2ccccc2NC(c2ccc(-c3ccc(Br)cc3)o2)N1O` (stereo not drawn), the IC50 is 25.5 µM.

For the molecule `COc1cc(CNCCO)cc(Cl)c1OCc1ccc(Cl)cc1Cl`, the IC50 is 22.4 µM.

As for `O=C(N/N=C/c1cccs1)c1ccc2nc[nH]c2c1`, the IC50 was 125 µM.

As for `O=C(O)c1cccc(N2C(=O)CSC2=S)c1`, the half-maximal inhibitory concentration (IC50) was 68 µM.

As to `CS(=O)(=O)c1ccc2nc(NC(=O)c3ccc(Cl)nc3)sc2c1`, the concentration for half-maximal inhibition (IC50) was 27.8 µM.

Consider `Cc1ccc(C[n+]2c(-c3ccc(C)cc3)cc(-c3ccc(C)cc3)cc2-c2ccc(C)cc2)cc1`, for which the IC50 is 15.6 µM.

In the case of `Cc1nc(N)c(Cc2ccc(Cl)cc2Cl)c(N)n1`, the half-inhibitory concentration (IC50) is 30.4 µM.

`CCn1cc(C(=O)O)c(=O)c2cc(F)c(N3CCN(C(=S)NC(=O)c4cccc(F)c4)CC3)cc21`: the IC50 is 94.6 µM.

For `O=C(NC(CO)C(O)c1ccc([N+](=O)[O-])cc1)C(Cl)Cl` (stereo not drawn), the IC50 was 3.02 µM.

For `Cc1ccc(C)c(NC(=O)c2ccccc2O)c1`, the half-maximal inhibitory concentration (IC50) was 58.1 µM.

Take `Oc1ccc(COCc2ccccc2)c2cccnc12`: the IC50 is 29.2 µM.

`C#CCOCCOCCOCCNc1nc(N2CCN(C(=O)[C@H](Cc3ccc(O)cc3)n3cc([C@@H](N)CC(C)C)nn3)CC2)nc(N2CCN(C(=O)[C@H](Cc3ccc(O)cc3)n3cc([C@@H](N)CC(C)C)nn3)CC2)n1`: the 50% inhibitory concentration (IC50) is 80 µM.

On to `CC(C(=O)c1ccc(-c2ccccc2)cc1)[n+]1cccc(NC(=O)c2ccccc2)c1` (stereo not drawn), for which the IC50 is 19.4 µM.

For `N/C(=N\N=C/c1ccc(F)cc1)N/N=C\c1ccc(F)cc1`, the half-maximal inhibitory concentration (IC50) is 38.6 µM.

For `CN1C(=O)NC(c2ccc(O)cc2)C(C(=O)c2cccs2)C1(O)C(F)(F)F` (stereo not drawn), the IC50 is 19.1 µM.

On to `CCCCC(=O)NNC(=S)NC(=O)CCC`, for which the IC50 is 92.6 µM.

For the molecule `COc1cc(C(=O)N/N=C/c2ccc(OC(=O)c3cccc(C)c3)c(OC)c2)ccc1O`, the IC50 was 108 µM.

In the case of `CCCCCCCCCCC[N+](C)(C)CC/C=C1/c2ccccc2Sc2ccc(Cl)cc21`, the IC50 was 53.6 µM.

Turning to `O=C(C[n+]1ccccc1)c1ccc(-c2ccccc2)cc1`, the IC50 is 123 µM.

As to `Clc1ccc(/C=C/c2ncc[nH]2)c(Cl)c1`, the concentration for half-maximal inhibition (IC50) was 32.5 µM.

On to `Nc1cc(Cl)c2nonc2c1[N+](=O)[O-]`, for which the concentration for half-maximal inhibition (IC50) is 32.6 µM.

In the case of `CN1CCN(C2=Cc3ccccc3Sc3cc(F)c(F)cc32)CC1`, the IC50 is 37.3 µM.

`CCOC(=O)N1CCN(Cc2cc(Cl)c3cccnc3c2O)CC1`: the half-inhibitory concentration (IC50) is 47.4 µM.

For the molecule `Cc1occc1C(=O)N/N=C/C=C/c1ccccc1`, the IC50 was 97.1 µM.

`N/C(=N\OS(=O)(=O)c1ccc2ccccc2c1)c1cccnc1`: the IC50 is 17.3 µM.

Turning to `CCCCCCCCCCOC(=O)Cn1c(COc2cccc(C)c2)[n+](C)c2ccccc21`, the IC50 is 9.7 µM.

As for `CCCCCCCCCCOC(=O)Cn1c(COc2ccccc2C)[n+](C)c2ccccc21`, the half-inhibitory concentration (IC50) is 10.4 µM.

In the case of `Cc1cccc(NC2=NC3(CCCCC3)N=C(N)N2)c1`, the IC50 was 76.6 µM.

Turning to `Cc1cc(OCC(O)CNC(C)c2ccccc2)ccc1C(C)C` (stereo not drawn), the 50% inhibitory concentration (IC50) was 38.3 µM.

For `Cc1ccc(Nc2nc(NCCO)c3ccccc3n2)cc1C`, the IC50 is 34 µM.

`Cc1cc([N+](=O)[O-])cc(/C=N\NC(=O)C2COc3ccccc3O2)c1O` (stereo not drawn): the IC50 was 30.3 µM.

On to `C#CCOCCOCCOCCNc1nc(N2CCN(C(=O)[C@H]([C@@H](C)CC)n3cc([C@@H](N)Cc4ccc(O)cc4)nn3)CC2)nc(N2CCN(C(=O)[C@H](Cc3cc4ccccc4[nH]3)n3cc([C@@H](N)CC(C)C)nn3)CC2)n1`, for which the 50% inhibitory concentration (IC50) is 27.2 µM.

As to `CCC(=O)c1ccc(OCC(O)CNCCc2ccc(Cl)cc2)cc1` (stereo not drawn), the IC50 was 147 µM.

With `COc1ccc(Cl)cc1C(=O)C1CCCN(CCO)C1` (stereo not drawn), the IC50 was 56.2 µM.

Turning to `O=C(CCN1CCN(c2ccccc2)CC1)c1ccc(Cl)cc1`, the IC50 is 70.3 µM.

Consider `O=C(OCC(=O)N1CCOCC1)c1ccc[nH]c1=O`, for which the concentration for half-maximal inhibition (IC50) was 10.9 µM.

In the case of `CN1CCN(C2Cc3cc(Cl)ccc3Sc3cc(F)ccc32)CC1` (stereo not drawn), the 50% inhibitory concentration (IC50) is 22.2 µM.

Turning to `O=C(C[n+]1cc(Br)cc2ccccc21)c1ccc(Cl)cc1`, the IC50 was 32.7 µM.

`O=C(NC(=S)NNC(=O)c1cccs1)c1ccc(Br)o1`: the IC50 was 60.2 µM.

For the molecule `O=[N+]([O-])c1cc(Cl)cc(/C=N/NC(=S)Nc2ccc(S(=O)(=O)N3CCOCC3)cc2)c1O`, the IC50 is 51 µM.

Take `CCCCCCCCCCOC(=O)Cn1c(COc2ccccc2OC)[n+](C)c2ccccc21`: the IC50 is 20 µM.

Turning to `Cc1ccc(C)c(N/C(N)=N/c2nc(C)cc(C)n2)c1`, the IC50 is 67.4 µM.

In the case of `O=c1[nH]cc(N=Cc2cc([N+](=O)[O-])ccc2O)c(=O)[nH]1`, the IC50 was 77.8 µM.

With `Cc1ccc(N/C(=C\C(=O)c2ccccc2)C(=O)O)cc1`, the IC50 is 74.4 µM.

`O=C(/C=C/c1ccccc1)c1ccc(NC2=NCCCS2)cc1`: the concentration for half-maximal inhibition (IC50) was 67.3 µM.

For `COc1cc(/C=C2/C(=O)NN(c3ccc(C)c(Cl)c3)C2=O)cc([N+](=O)[O-])c1O`, the 50% inhibitory concentration (IC50) is 74.6 µM.

`O=C(CCNC(=O)c1ccco1)Nc1ccc(SC(F)F)cc1`: the IC50 is 93.7 µM.

With `CC(=O)c1cc(O)c2ccccc2c1O`, the concentration for half-maximal inhibition (IC50) is 107 µM.

With `CN1C(=O)N2CN(C3CCCCC3)CN3C(=O)N(C)C1C23` (stereo not drawn), the 50% inhibitory concentration (IC50) is 110 µM.

For `C/C(O)=C\c1nc2ccccc2oc1=O`, the half-inhibitory concentration (IC50) was 41.6 µM.

As to `CCOC(=O)c1c(-c2ccccc2)oc2ccc(OCC(O)CNCCN(C)C)cc12` (stereo not drawn), the IC50 is 36.8 µM.

As for `O=C(CSc1nc2ccccc2s1)N/N=C/c1cc([N+](=O)[O-])ccc1O`, the 50% inhibitory concentration (IC50) was 60.8 µM.

As for `CCCCCCCCCCOC(=O)Cn1c(COc2cccc(OC)c2)[n+](C)c2ccccc21`, the IC50 is 10.2 µM.

Take `CCOc1ccc(OCCSc2nc(C)cc(=O)[nH]2)cc1`: the half-maximal inhibitory concentration (IC50) is 149 µM.

For the molecule `COc1ccccc1N1CCN(Cc2ccc(O)c3ncccc23)CC1`, the half-inhibitory concentration (IC50) was 32.5 µM.

In the case of `CS(=O)(=O)c1ccc([C@@H](O)[C@@H](CO)NC(=O)C(Cl)Cl)cc1`, the 50% inhibitory concentration (IC50) is 18 µM.

For `COc1cccc(/C=N\NC(=O)Cn2nnc3ccccc32)c1O`, the IC50 was 94.6 µM.

Take `COc1ccccc1Nc1c2ccccc2nc2ccccc12`: the half-inhibitory concentration (IC50) was 99.9 µM.

With `O=C(N/N=C/c1c[nH]c2ccccc12)c1cc2ccccc2o1`, the IC50 was 99.8 µM.

For the molecule `C/C(=N\Nc1ccc2nncn2n1)c1ccccn1`, the IC50 was 37.2 µM.

For `NCC/C=C1/c2ccccc2CSc2ccccc21`, the half-inhibitory concentration (IC50) is 146 µM.

On to `O=C(N/N=C/c1cc(O)ccc1Br)c1cccnc1`, for which the concentration for half-maximal inhibition (IC50) was 69.4 µM.

On to `Cc1ccc(-c2csc(N=C(N)N)n2)c(C)c1`, for which the IC50 was 46.3 µM.

In the case of `CN(C)c1ccc(O)c2c1CC1CC3C(N(C)C)C(=O)C(C(N)=O)=C(O)[C@@]3(O)C(=O)C1=C2O` (stereo partly drawn), the half-maximal inhibitory concentration (IC50) was 1.69 µM.

`Cc1ccc(C(=O)Sc2cccccc2=O)cc1`: the half-inhibitory concentration (IC50) was 6.31 µM.

With `Clc1ccc(CN2CCc3c([nH]c4ccccc34)C2)cc1Cl`, the half-inhibitory concentration (IC50) was 36.2 µM.

Regarding `Cc1cc(C)n2nc(S(=O)(=O)Nc3c(Cl)cccc3Cl)nc2n1`, the IC50 was 49.7 µM.

As for `Cc1cc(C)c(NC(=O)C[N+](C)(C)CC(O)COc2cccc3ccccc23)c(C)c1` (stereo not drawn), the IC50 is 63.8 µM.

As to `O=C(O)c1ccc(N2C(=O)CSC2=S)cc1`, the IC50 is 137 µM.

Turning to `CC1CCC(C(C)C)C(OC(=O)C[n+]2cc(-c3ccc(Cl)cc3)n3c2CCC3)C1` (stereo not drawn), the IC50 was 40.3 µM.

For `O=S(=O)(Nc1c(S(=O)(=O)c2ccccc2)c2nc3ccccc3nc2n1C1CCCCC1)c1ccccc1`, the IC50 was 5.67 µM.

With `COc1cc([N+](=O)[O-])cc(/C=N/NC(=O)C(C)Nc2cccc(C)c2)c1O` (stereo not drawn), the IC50 is 136 µM.

As to `Oc1c(CN2CCOCC2)cc(COCc2ccccc2)c2cccnc12`, the IC50 was 36 µM.

As to `O=C(NCCCN1CCN(c2ccc(F)cc2)CC1)Nc1ccc([N+](=O)[O-])cc1`, the IC50 is 74.7 µM.

Turning to `Cc1cc(Cl)c(OCCCNCc2ccccc2)c(Br)c1`, the IC50 was 37.5 µM.

Take `Nc1nonc1-n1nnc(C(=O)N/N=C/c2ccccc2O)c1CN1CCCC1`: the IC50 is 112 µM.

As to `CCn1cc(C(=O)O)c(=O)c2cc(F)c(N3CCN(C(=S)Nc4ccc(OC)cc4)CC3)cc21`, the IC50 was 35.9 µM.

Regarding `CC(NCC(O)COCCC12CC3CC(CC(C3)C1)C2)c1ccccc1` (stereo not drawn), the IC50 was 23.1 µM.

As for `Cc1ccc(NC(=O)CNCc2ccccc2)cc1Br`, the concentration for half-maximal inhibition (IC50) is 43 µM.

For the molecule `CCc1ccc2c(c1)C1(NN=C(c3ccc(C)cc3)S1)C(=O)N2` (stereo not drawn), the IC50 is 38.5 µM.

For `CN(C)CCNC(=O)c1ccc(COc2ccc(Cl)cc2Cl)cc1`, the IC50 is 75.6 µM.

Turning to `O=C(CSC1=NC(=O)C(c2ccccc2)C(=O)N1)Nc1cccc(Cl)c1` (stereo not drawn), the IC50 was 80.2 µM.

`CC(NCc1ccc(Cl)c(Cl)c1)C(O)c1ccccc1` (stereo not drawn): the half-inhibitory concentration (IC50) is 29.8 µM.

`C/C(=N\N=C(N)N)c1ccc(Cl)c(Cl)c1`: the IC50 is 64.4 µM.

As for `CCn1cc(C(=O)O)c(=O)c2cc(F)c(N3CCN(C(=S)Nc4ccccc4OC)CC3)cc21`, the IC50 is 41.1 µM.

For the molecule `c1ccc(CNc2nc(N3CCN(Cc4ccccc4)CC3)nc3ccccc23)cc1`, the IC50 was 25.4 µM.

Consider `CCN1CCN(CCCNC(=O)c2ccc(/C=C3/Sc4ccccc4N(Cc4ccccc4F)C3=O)cc2)CC1`, for which the IC50 is 85.4 µM.

On to `CN(C)C1C(=O)C(C(N)=O)=C(O)C2(O)C(=O)C3=C(O)c4c(O)cccc4C(C)(O)C3CC12` (stereo not drawn), for which the IC50 is 1.71 µM.

For `Cc1c2ccncc2c(C)c2c1[nH]c1ccccc12`, the IC50 is 21.2 µM.

Regarding `CS(=O)(=O)c1ccc([C@@H](O)[C@@H](CF)NC(=O)C(Cl)Cl)cc1`, the 50% inhibitory concentration (IC50) is 5.15 µM.
